{"source": "patent US12144820B2", "about": "“Dry powder formulations for inhalation” (VECTURA INC., priority 2016, dated 2024)", "type_in_all_cases": "physicochemical", "key": {"[1]": {"experiment": "Chemical stability of aspirin in ASA/Leucine formulations by RP-HPLC after storage", "details": "reference standard, no storage condition", "description": "Chemical stability of aspirin in the formulations were tested by RP-HPLC before and after the formulations were exposed to various storage conditions."}, "[2]": {"experiment": "Potency and purity by RP-HPLC of aspirin/leucine formulations", "details": "before storage", "description": "The properties of the ASA formulation were evaluated, including geometric particle size distribution (e.g., using laser diffraction such as the Malvern Dry Method); particle morphology (e.g., using scanning electron microscopy (SEM)); ID/Assay and purity (e.g., by HPLC); X-ray powder diffraction (XRPD); and aerosol properties by NGI."}, "[3]": {"experiment": "ASA and L-leucine mixing solubility", "details": "for precipitation after mixing: 5 wt. % total solids, on the order of minutes", "description": "The objective is to apply absolute solubility of ASA and L-Leu to a mixing study to determine if a spray drying approach is feasible. ASA and L-leucine was independently dissolved in preferred solvent: ASA in EtOH, and L-leucine in a sulfuric acid solution (pH 4.0) (which may increase L-leucine solubility in water). Proposed formulations were evaluated at a final total solids of 7 wt. % and 5 wt. %. In one embodiment, solvent ratio was 25/75 EtOH/Water. Precipitation of components was analyzed visually."}, "[4]": {"experiment": "ASA and L-leucine absolute solubility in EtOH/water blends", "description": "To define the absolute solubility of ASA and L-leucine in a variety of solvent blends, solvent blends were evaluated for solubility of ASA and L-leucine by visual confirmation. As used in this example, unless specified otherwise, leucine is L-leucine."}, "[5]": {"experiment": "ASA in ethanol spray solution stability evaluation", "details": "for % ASA Purity / % SA: 9 wt % ASA in ethanol", "description": "ASA degrades to salicylic acid (SA) as a function of time and temperature due to dissolution. Initial and cold 1 day solutions contained less than 0.5% SA.\n9 wt % ASA was added to ethanol with constant stirring to stainless steel vessels. Samples were either stirred at ambient room temperature (approx. 22° C.) or 4° C. and sampled at 1, 3 and 6 days (Table 34)."}, "[6]": {"experiment": "Anti-solvent evaluation of 5% w/w acetylsalicylic acid suspensions", "details": "5% w/w suspension, room temperature", "description": "After considering a number of factors in the end it was determined that only n-heptane and toluene fulfilled all the requirements, and therefore these were selected for further evaluation. Suspensions of acetylsalicylic acid at 5% w/w were prepared with the various anti-solvents, by charging the required amount of anti-solvent, charging the required amount of acetylsalicylic acid, and then stirring until a homogeneous suspension was obtained. The suspensions were qualitatively evaluated at room temperature and then filtered using a 0.45 μm membrane, which was then placed in an oven and dried at 60° C. until the solvent had completely evaporated. A quantitative analysis was performed on the residue that remained in the membrane by weighing the membrane before and after the test."}}, "note": "Where two headings read alike, the source gives them in different places."}
{"smiles": "CC(=O)Oc1ccccc1C(=O)O", "note": "[ASA Reference Standard]", "values": [{"measurement": "ASA Purity (%)", "setting": "[1]", "result": 99.76, "unit": "%"}, {"measurement": "SA Impurity (%)", "setting": "[1]", "result": 0.24, "unit": "%"}]}
{"smiles": "CC(=O)Oc1ccccc1C(=O)O", "note": "[ASA Standard]", "values": [{"measurement": "ASA Purity", "setting": "[2]", "result": "99.76 ± 0.11", "unit": "%"}, {"measurement": "SA Purity", "setting": "[2]", "result": "0.24 ± 0.11", "unit": "%"}]}
{"smiles": "CC(C)C[C@H](N)C(=O)O", "note": "[L-Leucine, L-leucine]", "values": [{"measurement": "precipitation after mixing", "setting": "[3]", "result": "no evidence of precipitation"}, {"measurement": "time to precipitation out of solution", "setting": "[3]; 7 wt. % solids, 85/15 ASA/L-leucine formulation, after mixing", "result": "approximately 60 seconds"}, {"measurement": "solubility", "setting": "[4]; Neutral, EtOH/Water 0/100 (v/v), read-out: L-Leucine solubility", "result": 10, "unit": "mg/mL"}, {"measurement": "L-Leucine solubility", "setting": "[4]; Neutral, EtOH/Water 25/75 (v/v)", "result": 0.04, "unit": "wt. %"}, {"measurement": "L-Leucine solubility", "setting": "[4]; Neutral, EtOH/Water 50/50 (v/v)", "result": 0.03, "unit": "wt. %"}, {"measurement": "L-Leucine solubility", "setting": "[4]; Neutral, EtOH/Water 75/25 (v/v)", "result": 0.02, "unit": "wt. %"}, {"measurement": "L-Leucine solubility", "setting": "[4]; Neutral, EtOH/Water 90/10 (v/v)", "result": "Insouble"}, {"measurement": "solubility", "setting": "[4]; aqueous buffer, pH 3, EtOH/Water 0/100 (v/v), read-out: L-Leucine solubility", "result": 17, "unit": "mg/mL"}, {"measurement": "solubility", "setting": "[4]; aqueous with cosolvent or surfactant or cyclodextrin, Neutral, EtOH/Water 10/90 (v/v), read-out: L-Leucine solubility", "result": 9, "unit": "mg/mL"}, {"measurement": "solubility", "setting": "[4]; aqueous with cosolvent or surfactant or cyclodextrin, Neutral, EtOH/Water 25/75 (v/v), read-out: L-Leucine solubility", "result": 0.4, "unit": "mg/mL"}, {"measurement": "solubility", "setting": "[4]; aqueous with cosolvent or surfactant or cyclodextrin, Neutral, EtOH/Water 50/50 (v/v), read-out: L-Leucine solubility", "result": 0.3, "unit": "mg/mL"}, {"measurement": "solubility", "setting": "[4]; aqueous with cosolvent or surfactant or cyclodextrin, pH 3, EtOH/Water 10/90 (v/v), read-out: L-Leucine solubility", "result": 11, "unit": "mg/mL"}, {"measurement": "solubility", "setting": "[4]; aqueous with cosolvent or surfactant or cyclodextrin, pH 3, EtOH/Water 50/50 (v/v), read-out: L-Leucine solubility", "result": 1, "unit": "mg/mL"}, {"measurement": "solubility", "setting": "[4]; organic solvent or mixture, Neutral, EtOH/Water 75/25 (v/v), read-out: L-Leucine solubility", "result": 0.2, "unit": "mg/mL"}, {"measurement": "L-Leucine solubility", "setting": "[4]; pH 3, EtOH/Water 0/100 (v/v)", "result": 1.7, "unit": "wt. %"}, {"measurement": "L-Leucine solubility", "setting": "[4]; pH 3, EtOH/Water 10/90 (v/v)", "result": 1.0, "unit": "wt. %"}, {"measurement": "L-Leucine solubility", "setting": "[4]; pH 3, EtOH/Water 50/50 (v/v)", "result": 0.1, "unit": "wt. %"}]}
{"smiles": "CC(=O)Oc1ccccc1C(=O)O", "note": "[acetylsalicylic acid]", "values": [{"measurement": "precipitation after mixing", "setting": "[3]", "result": "no evidence of precipitation"}, {"measurement": "% ASA Purity", "setting": "[5]; Ambient Conditions, 1 Day", "result": 98.0, "unit": "%"}, {"measurement": "% SA", "setting": "[5]; Ambient Conditions, 1 Day", "result": 1.7, "unit": "%"}, {"measurement": "% ASA Purity", "setting": "[5]; Ambient Conditions, 3 Day", "result": 90.5, "unit": "%"}, {"measurement": "% SA", "setting": "[5]; Ambient Conditions, 3 Day", "result": 7.5, "unit": "%"}, {"measurement": "% ASA Purity", "setting": "[5]; Ambient Conditions, 6 Day", "result": 90.5, "unit": "%"}, {"measurement": "% SA", "setting": "[5]; Ambient Conditions, 6 Day", "result": 7.2, "unit": "%"}, {"measurement": "% ASA Purity", "setting": "[5]; Ambient Conditions, Initial", "result": 99.9, "unit": "%"}, {"measurement": "% SA", "setting": "[5]; Ambient Conditions, Initial", "result": 0.1, "unit": "%"}, {"measurement": "% ASA Purity", "setting": "[5]; Controlled 4° C., 1 Day", "result": 99.1, "unit": "%"}, {"measurement": "% SA", "setting": "[5]; Controlled 4° C., 1 Day", "result": 0.4, "unit": "%"}, {"measurement": "% ASA Purity", "setting": "[5]; Controlled 4° C., 3 Day", "result": 97.5, "unit": "%"}, {"measurement": "% SA", "setting": "[5]; Controlled 4° C., 3 Day", "result": 2.0, "unit": "%"}, {"measurement": "% ASA Purity", "setting": "[5]; Controlled 4° C., 6 Day", "result": 96.7, "unit": "%"}, {"measurement": "% SA", "setting": "[5]; Controlled 4° C., 6 Day", "result": 2.3, "unit": "%"}, {"measurement": "% ASA Purity", "setting": "[5]; Controlled 4° C., Initial", "result": 99.9, "unit": "%"}, {"measurement": "% SA", "setting": "[5]; Controlled 4° C., Initial", "result": 0, "unit": "%"}, {"measurement": "SA content of spray solution", "setting": "[5]; Initial and cold 1 day solutions", "result": "less than 0.5%"}, {"measurement": "ASA solubility", "setting": "[4]; EtOH/Water 50/50 (v/v)", "result": 7.5, "unit": "wt. %"}, {"measurement": "solubility", "setting": "[4]; EtOH/Water 50/50 (v/v), aqueous with cosolvent or surfactant or cyclodextrin, read-out: ASA solubility", "result": 72.5, "unit": "mg/mL"}, {"measurement": "ASA solubility", "setting": "[4]; EtOH/Water 75/25 (v/v)", "result": 17.4, "unit": "wt. %"}, {"measurement": "solubility", "setting": "[4]; EtOH/Water 75/25 (v/v), organic solvent or mixture, read-out: ASA solubility", "result": 118, "unit": "mg/mL"}, {"measurement": "ASA solubility", "setting": "[4]; EtOH/Water 90/10 (v/v)", "result": 21.4, "unit": "wt. %"}, {"measurement": "solubility", "setting": "[4]; EtOH/Water 90/10 (v/v), organic solvent or mixture, read-out: ASA solubility", "result": 220, "unit": "mg/mL"}, {"measurement": "ASA solubility", "setting": "[4]; all solvent blends except 25/75 EtOH/water", "result": "up to 5 wt. % total solids"}, {"measurement": "solubility behaviour in anti-solvent", "setting": "[6]; n-heptane", "result": "phobic behavior"}, {"measurement": "solubility behaviour in anti-solvent", "setting": "[6]; toluene", "result": "partially soluble"}]}
